{
  "source": "patent US20240269292A1",
  "key": {"carboxyesterase": {"test_system": "carboxyesterase", "test": "In vitro cleavage of the prodrug ester bond by carboxyesterase (HPLC)", "assay_type": "in vitro ADME", "conditions": "37° C. in vitro, carboxyesterase 0.1 μg/mL", "experimental": "One example of an EY005-prodrug includes EY005-stearyl (FIG. 16A), wherein EY005 is linked via ester bond to stearyl alcohol, one member from the group of long-chain saturated fatty alcohols. On cleavage of the ester bond, the prodrug EY005-stearyl releases the EY005 MTT. […] Upon addition of EY005-stearyl prodrug to phosphate-buffered saline solution at 37° C. without esterase, the ester bond of the EY005-stearyl prodrug cleaves more slowly (˜36 hours) by hydrolysis (FIGS. 17A and 17C).\nEY005-stearyl was incubated at 37° C. in vitro with carboxyesterase (0.1 μg/mL), to simulate the ocular physiologic environment and the type of esterase that is readily abundant within the vitreous. […] Upon addition of EY005-stearyl prodrug to phosphate-buffered saline solution at 37° C. without esterase, the ester bond of the EY005-stearyl prodrug cleaves more slowly by hydrolysis (FIG. 17C).\nFIG. 18 illustrates theoretical data from an in vitro esterase assay showing rapid ester cleavage of two different EY005 prodrugs upon exposure to the esterase.\nOne specific example of EY005-prodrug includes EY005-stearyl (depicted in FIG. 16A), wherein EY005 is linked via ester bond to stearyl alcohol, one member from the group of long-chain saturated fatty alcohols. On cleavage of the ester bond, the prodrug EY005-stearyl releases the EY005 MTT. […]"}, "[1]": {"test": "Complexation of EY005-stearyl with complexation agent in methyl laurate, HPLC of pulled-down particulates and medium", "assay_type": "physicochemical", "conditions": "1 hour", "experimental": "As described herein, formation of drug-complex particulates in which the complexation agent has high avidity for the drug can be quantified and verified experimentally. For example, the MTT-prodrug EY005-stearyl was admixed with known quantities of selected individual complexation agents. The EY005-stearyl-complexation agent mixture was then added to an appropriate dispersal medium (in this case, methyl laurate), and centrifuged to “pull down” or separate EY005-stearyl bound to complexation agent from unbound prodrug present in the dispersal medium. HPLC analysis of pulled down particulates and dispersal medium from EY005-stearyl content determined the fraction of MTT-prodrug that is bound to the complexation agent and calculation of the Kd value, the unbound to bound coefficient, for the MTT-prodrug/complexation agent pair. Using this type of assay, Kd values can be generated to identify the unbound to bound drug ratio for specific MTT-prodrug/complexation agent pairs in a selected dispersal medium (see, e.g., Table 2, below).\nAs described herein, formation of drug-complex particulates in which the complexation agent has high avidity for the drug can be quantified and verified experimentally. For example, the MTT-prodrug EY005-stearyl was admixed with known quantities of selected individual complexation agents. […] HPLC analysis of pulled down particulates and dispersal medium from EY005-stearyl content determined the fraction of MTT-prodrug that is bound to the complexation agent (binding capacity) and calculation of the Kd value, the unbound to bound coefficient, for the MTT-prodrug/complexation agent pair. […]\nTable 2 illustrates an example of a EY005-stearyl prodrug solubilized in methyl laurate in which various complexation agents were added, mixed, and incubated for 1 hour. The quantity of EY005-stearyl prodrug complexed with each complexation agent was determined by HPLC. Kd values were calculated as [unbound]/[bound] fraction prodrug under each condition. Binding capacity was calculated as the μg EY005-stearyl complexed per mg complexation agent."}, "Albumin": {"target": "Albumin (Homo sapiens, UniProt P02768)", "sequence (P02768 25-609, species assumed)": "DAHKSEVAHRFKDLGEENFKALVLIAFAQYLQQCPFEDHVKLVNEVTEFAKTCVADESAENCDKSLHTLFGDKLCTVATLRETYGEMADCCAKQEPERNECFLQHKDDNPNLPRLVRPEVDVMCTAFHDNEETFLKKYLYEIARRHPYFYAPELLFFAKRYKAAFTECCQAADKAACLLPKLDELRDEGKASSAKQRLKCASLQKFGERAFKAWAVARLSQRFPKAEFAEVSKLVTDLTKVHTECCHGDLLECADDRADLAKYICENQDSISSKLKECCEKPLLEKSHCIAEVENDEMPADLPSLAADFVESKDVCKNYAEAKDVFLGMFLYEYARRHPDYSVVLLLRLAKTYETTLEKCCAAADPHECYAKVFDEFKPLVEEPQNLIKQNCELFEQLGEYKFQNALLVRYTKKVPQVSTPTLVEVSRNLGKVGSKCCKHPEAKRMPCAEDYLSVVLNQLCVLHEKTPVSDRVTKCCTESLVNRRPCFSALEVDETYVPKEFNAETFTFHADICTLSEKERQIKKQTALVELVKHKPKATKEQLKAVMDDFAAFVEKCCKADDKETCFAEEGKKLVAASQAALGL", "test": "Complexation of EY005-stearyl with complexation agent in methyl laurate, HPLC of pulled-down particulates and medium", "assay_type": "binding", "conditions": "1 hour", "experimental": "As described herein, formation of drug-complex particulates in which the complexation agent has high avidity for the drug can be quantified and verified experimentally. For example, the MTT-prodrug EY005-stearyl was admixed with known quantities of selected individual complexation agents. The EY005-stearyl-complexation agent mixture was then added to an appropriate dispersal medium (in this case, methyl laurate), and centrifuged to “pull down” or separate EY005-stearyl bound to complexation agent from unbound prodrug present in the dispersal medium. HPLC analysis of pulled down particulates and dispersal medium from EY005-stearyl content determined the fraction of MTT-prodrug that is bound to the complexation agent and calculation of the Kd value, the unbound to bound coefficient, for the MTT-prodrug/complexation agent pair. […]\nAs described herein, formation of drug-complex particulates in which the complexation agent has high avidity for the drug can be quantified and verified experimentally. For example, the MTT-prodrug EY005-stearyl was admixed with known quantities of selected individual complexation agents. […]\nTable 2 illustrates an example of a EY005-stearyl prodrug solubilized in methyl laurate in which various complexation agents were added, mixed, and incubated for 1 hour. The quantity of EY005-stearyl prodrug complexed with each complexation agent was determined by HPLC. […]"}, "[2]": {"test_system": "retinal pigment epithelium (RPE) cells", "test": "HQ-induced mitochondrial dysfunction in RPE cells (flavoprotein autofluorescence)", "assay_type": "cell-based", "conditions": "HQ-exposed RPE cells, versus elamipretide or native EY005", "experimental": "(§1) Cells are then treated with drug (or control phosphate-buffered saline (PBS) solution) and assayed for effects on mitochondrial dysfunction and other cellular changes.\n(§2) Mitochondrial dysfunction can be modeled using in vitro cell culture systems relevant to retinal disease. In one such system, retinal pigment epithelium (RPE) cells are cultured to post-confluence to establish a differentiated cell monolayer and are then assayed for mitochondrial dysfunction and effect of drugs for treatment of mitochondrial dysfunction (FIG. 5). In this model, mitochondrial dysfunction is induced by two exposures to nonlethal doses of hydroquinone (HQ) at day −3 and day 0. Hydroquinone (HQ), a well-known environmental toxicant ubiquitously present in Western lifestyle, is a biochemical inducer of mitochondrial dysfunction. […] Cells are then treated with a drug of interest (mitochondrial targeted peptide drug or a prodrug thereof) or control (phosphate-buffered saline (PBS) solution and assayed for effects on mitochondrial dysfunction, as measured by microscopy of flavoprotein autofluorescence (a measure of mitochondrial electron transport chain complex II decompensation) (FIG. 6)."}, "[3]": {"test_system": "retinal pigment epithelium (RPE) cells", "test": "Actin cytoskeleton disorganization (phalloidin) in HQ-exposed RPE cells", "assay_type": "cell-based", "conditions": "5 μM", "experimental": "as §1, §2"}, "[4]": {"test": "Accelerated in vitro release assay, methyl laurate dispersal medium", "assay_type": "physicochemical", "source_text": "In all cases, all EY005 was rapidly released, in some cases within hours, and in all cases by day 3."}, "[5]": {"test": "Release assay of two formulations of EY005 prodrugs in the extended release system", "assay_type": "physicochemical", "source_text": "FIG. 36 illustrates data from a release assay of two representative formulations of EY005 prodrugs in the extended-release drug delivery system, with different durations of release.\nFor example, FIG. 36 illustrates release kinetics for examples of two distinct formulations of EY005 prodrugs in the complexation-based XRDDS, each with different conjugation moieties, as described herein: EY005-octadecyl (formulation 1) and EY005-8-mer peptide (formulation 2)."}, "[6]": {"test": "Hydrophobicity and aqueous solubility", "assay_type": "physicochemical"}, "[7]": {"test_system": "sub-RPE deposits and visual function", "test": "APOE4 + high fat diet (HFD) mouse model of dry AMD", "assay_type": "in vivo", "conditions": "3 mg/kg subcutaneous", "experimental": "For example, FIG. 2A illustrates the reversal of pre-existing RPE mitochondrial dysfunction and sub-RPE deposits in an ApoE4 mouse model by high-dose elamipretide administered systemically by subcutaneous (SQ) administration (3 mg/kg […]). Aged ApoE4 mice fed a high-fat diet (HFD) develop sub-RPE deposits that reflect the pathobiology of subRPE drusen in patients with dry AMD. ApoE4 mice were treated with elamipretide (n=5; 3 mg/kg SQ daily) or vehicle (n=5) for 4 weeks, continuing HFD from prior 3 mos. […] These untreated mice had thick, severe deposits."}, "[8]": {"test": "Ocular tissue levels of elamipretide in rabbits after subcutaneous or intravitreal administration", "assay_type": "in vivo, rabbit", "experimental": "For example, maximal systemic dosing of elamipretide is 40 mg daily delivered by subcutaneous route of administration, or approximately […]. […] Meanwhile, peak retina levels following intravitreal injection of 15 μg elamipretide is ˜15 μM. Thus, retinal bioavailability of mitochondrial-targeted peptides following systemic administration of a maximally tolerated dose is suboptimal as compared to intravitreal administration. […] The drug clears from the eye in just a few days, and once a week intravitreal injection in humans is not practical or feasible for treatment of disease in clinical practice. Thus, an extended release drug delivery system is essential to achieve sustained, high levels of drug within the vitreous, retina, and RPE.\nSystemic delivery of mitochondrial targeted tetrapeptides by SQ injection have suboptimal efficacy in human patients due to insufficient retinal bioavailability. Sufficient levels of the mitochondrial-targeted tetrapeptides cannot be achieved at the target tissue site (i.e., retina). For example, in humans, maximal dosing is 40 mg SQ (˜0.3-0.9 mg/kg), a dose that is limited by SQ injection site toxicity (FIG. 3). In mice, effective dosing required 3 mg/kg, which is 3-10 fold greater than the mass-adjusted dose in humans. Peak plasma levels are also limited by the drug's rapid blood clearance, and the blood-eye barrier may also impede retinal penetration. […] Thus, higher retinal and choroidal drug levels with continuous drug exposure are desirable."}, "patients with dry AMD [9]": {"test_system": "patients with dry AMD", "test": "ReCLAIM clinical trial in patients with dry AMD", "assay_type": "in vivo, human", "conditions": "subcutaneous daily (40 mg)", "experimental": "FIG. 3 illustrates summary results of the ReCLAIM study, a phase 1/2 clinical trial of systemically administered (40 mg subcutaneous daily) elamipretide in two cohorts of patients with dry AMD: 1) noncentral geographic atrophy (GA) and 2) high-risk drusen."}, "[10]": {"test_system": "retinal pigment epithelium (RPE) cells", "conditions": "preclinical in vitro models of dry AMD; cited from earlier work"}, "[11]": {"conditions": "human, SQ; cited from earlier work"}, "patients with dry AMD [12]": {"test_system": "patients with dry AMD", "conditions": "subcutaneous, once daily; limited by local injection site reactions; cited from earlier work"}},
  "note": "Entries after “also recorded” stand apart in the source; their conditions may differ. Non-standard residues stand in square brackets, D forms with d. Residues, ends and D or L forms follow the SMILES beside them. *: point of attachment. Dmt = Cc1cc(O)cc(C)c1C[C@H](N)C(=O)O; X1 = CCCCCCCCCCCCCCCCCCO*",
  "data": [
    {"smiles": "CCCCCCCCCCCCCCCCCCOC(=O)[C@H](Cc1ccccc1)NC(=O)[C@H](CCCCN)NC(=O)[C@H](Cc1c(C)cc(O)cc1C)NC(=O)[C@H](N)CCCNC(=N)N", "note": "[EY005-stearyl, H-d-Arg-DMT-Lys-Phe(-O)-octadecyl] (H-[dR][Dmt]KF-X1)", "values": [
      {"measurement": "cleavage of the prodrug ester bond, releasing EY005", "setting": "carboxyesterase", "value": "rapid cleavage of the prodrug ester bond"},
      {"measurement": "μg EY005-stearyl complexed per mg complexation agent", "setting": "[1]; Cyclodextrin gamma", "value": 2.3, "unit": "μg per mg"},
      {"measurement": "μg EY005-stearyl complexed per mg complexation agent", "setting": "[1]; Lecithin", "value": 9.5, "unit": "μg per mg"},
      {"measurement": "μg EY005-stearyl complexed per mg complexation agent", "setting": "[1]; Silica microbeads", "value": 0.2, "unit": "μg per mg"},
      {"measurement": "μg EY005-stearyl complexed per mg complexation agent", "setting": "Albumin", "value": 4.5, "unit": "μg per mg"},
      {"measurement": "Potency for reversal of mitochondrial dysfunction relative to comparator", "setting": "[2]", "value": "efficacy equivalent to treatment with EY005 native peptide"},
      {"measurement": "Reversal of actin cytoskeleton disorganization", "setting": "[3]", "value": "normalized actin cytoskeleton dysfunction"},
      {"measurement": "Release rate of EY005", "setting": "[4]; magnesium stearate and albumin together", "value": "intermediate between that of formulations using either complexation agent alone"},
      {"measurement": "Release of EY005 into media", "setting": "[4]; no complexation agent", "value": "rapid release"},
      {"measurement": "Release of EY005 into media", "setting": "[4]; silica microbeads", "value": "rapid release"},
      {"measurement": "Release kinetics profile", "setting": "[5]; FIG. 36", "value": "longer initial early burst"},
      {"measurement": "Durability of release", "setting": "[5]; two-phase kinetics", "value": 120, "unit": "days"},
      {"measurement": "Hydrophobicity", "setting": "[6]", "value": "hydrophobic"}
    ]},
    {"smiles": "Cc1cc(O)cc(C)c1C[C@H](NC(=O)[C@H](N)CCCNC(=N)N)C(=O)N[C@@H](CCCCN)C(=O)N[C@@H](Cc1ccccc1)C(N)=O", "note": "[elamipretide, H-d-Arg-Dmt-Lys-Phe-NH2] (H-[dR][Dmt]KF-NH2)", "values": [
      {"measurement": "visual function (ERG B-wave amplitudes)", "setting": "[7]", "value": "increased B-wave amplitudes; also recorded: partially improved visual function"},
      {"measurement": "peak retina levels following intravitreal injection", "setting": "[8]; intravitreal injection of 15 μg", "value": "~15", "unit": "µM"},
      {"measurement": "choroid levels after 4 hours", "setting": "[8]; rabbit, subcutaneous 1 mg/kg", "value": "undetectable"},
      {"measurement": "drug in the retina after subcutaneous administration", "setting": "[8]; rabbit, subcutaneous 1 mg/kg", "value": "no drug is detected in the retina"},
      {"measurement": "peak choroid levels at 1 hour", "setting": "[8]; rabbit, subcutaneous 1 mg/kg", "value": "~50", "unit": "nM"},
      {"measurement": "Low-luminance visual acuity / visual function", "setting": "patients with dry AMD [9]", "value": "general mean trend toward improvement in multiple metrics of visual function"},
      {"measurement": "Aqueous solubility", "setting": "[6]; native form", "value": "high aqueous solubility"},
      {"measurement": "Reversal of mitochondrial dysfunction in RPE cell culture", "setting": "[10]", "value": "potent for reversal of mitochondrial dysfunction"},
      {"measurement": "Dose-limiting toxicity", "setting": "[11]", "value": "local injection site reactions"},
      {"measurement": "maximally tolerated dose in humans", "setting": "patients with dry AMD [12]", "value": 40, "unit": "mg"}
    ]}
  ]
}
